From US20120064056A1, “DICHLORACETATE IN COMBINATION WITH CLINICALLY HIGH LEVELS OF CARDIOPROTECTIVE OR HEMODYNAMIC DRUGS” (THE GOVERNORS OF THE UNIVERSITY OF ALBERTA TEC Edmonton, priority 2002, published 2012)
Values joined by “and” are separate entries in the source; they are usually repeats but may differ in a detail not shown here. Identical values can stand only once.

Assays:
[1] = system: isolated rat hearts; assay: Isolated working rat heart, aerobic perfusion: cardiac function and efficiency; design: Cardiac Work (CO · PSP): unit not given beside the values; conditions: for Aortic Outflow / Cardiac Efficiency (CW · O2^−1) / Cardiac Output / Cardiac Work (CO · PSP) / Coronary Flow / HR × PSP / Heart Rate / O2 Consumption / Peak Systolic Pressure: aerobically perfused, DCA 2 mM, diltiazem 0.8 μM, digoxin 3 nM, metoprolol 1 μM, dobutamine 1 μM; for effect on functional parameters shown in Table 2 incl. O2 consumption and cardiac efficiency, in words / effect on functional parameters shown in Table 1 (heart rate, peak systolic pressure, HR×PSP), in words: normal hearts, aerobic; for effect on functional parameters shown in Table 2 incl. O2 consumption and cardiac efficiency, in words: compared to control; for effect on functional parameters shown in Table 1 (heart rate, peak systolic pressure, HR×PSP), in words: compared to control (DCA and dobutamine: compared to dobutamine alone)
Description: (§1) Rat hearts were cannulated for isolated working heart perfusions as described in “An imbalance between glycolysis and glucose oxidation is a possible explanation for the detrimental effects of high levels of fatty acids during aerobic reperfusion of ischemic hearts.”, (J Pharmacol Exp Ther. 264:135 (1993); herein incorporated by reference. In brief, male Sprague-Dawley rats (0.3-0.35 kg) were anesthetized with pentobarbital sodium (60 mg/kg IP) and hearts were quickly excised, the aorta was cannulated and a retrograde perfusion at 37° C. was initiated at a hydrostatic pressure of 60 mm Hg. Hearts were trimmed of excess tissue, and the pulmonary artery and the opening to the left atrium were then cannulated. After 15 min of Langendorff perfusion, hearts were switched to the working mode by clamping the aortic inflow line from the Langendorff reservoir and opening the left atrial inflow line. The perfusate was delivered from an oxygenator into the left atrium at a constant preload pressure of 11 mm Hg. Perfusate was ejected from spontaneously beating hearts into a compliance chamber (containing 1 ml of air) and into the aortic outflow line. The afterload was set at a hydrostatic pressure of 80 mm Hg. All working hearts were perfused with Krebs'-Henseleit solution containing calcium 2.5 mmol/L, glucose 5.5 mmol/L, 3% bovine serum albumin (Fraction V, Boehringer Mannheim), and with 1.2 mmol/L palmitate. Palmitate was bound to the albumin as described previously (Saddik M., et al. J Biol. Chem. 267:3825-3831 (1992)). The perfusate was recirculated, and pH was adjusted to 7.4 by bubbling with a mixture containing 95% O2 and 5% CO2. For the aerobic model hearts, all tested compounds were introduced into the heart 5 minutes into the working mode following Langendorff Perfusion.
Spontaneously beating hearts were used in all perfusions. Heart rate and aortic pressure were measured with a Biopac Systems Inc. blood pressure transducer connected to the aortic outflow line. Cardiac output and aortic flow were measured with Transonic T206 ultrasonic flow probes in the preload and afterload lines, respectively. Coronary flow was calculated as the difference between cardiac output and aortic flow. The O2 contents of the perfusate entering and leaving the heart were measured using YSI™ micro oxygen electrodes placed in the preload and pulmonary arterial lines, respectively. Myocardial O2 consumption (MVO2) was calculated according to the Fick principle, using coronary flow rates and the arteriovenous difference in perfusate O2 concentration. Cardiac work was calculated as the product of systolic pressure and cardiac output. Cardiac efficiency was defined as a ratio of cardiac work to MVO2.

[2] = system: isolated rat hearts; assay: Isolated working rat heart, aerobic perfusion: glycolysis and glucose oxidation; design: glycolytic rates (glycolysis) / glucose oxidation rates: unit not given here; conditions: for glucose oxidation rates / glycolytic rates (glycolysis): normal hearts, aerobic, DCA 2 mM, digoxin 3 nM, diltiazem 0.8 μM, dobutamine 1 μM, metoprolol 1 μM; for glucose oxidation rates: FIG. 1, 3, 5, 7, control 361±43; for glycolytic rates (glycolysis): FIG. 2, 4, 6, 8, control 3.430±0.604
Description: as §1
Glycolysis and glucose oxidation were measured simultaneously by perfusing hearts with [5-^3H/U-^14C] glucose (Liu H., et al. Am J Physiol. 270:H72-H80 (1996); Taegtmeyer Het al. Am J Cardiol. 80:3A-10A (1997)). The total myocardial ^3H2O production and ^14CO2 production were determined at 10 minute intervals for the entirety of the aerobic period, 60 minutes for normal hearts and 30 minutes for the global ischemia and low flow demand ischemia models. In the global ischemia model, the total myocardial ^3H2O and ^14CO2 production were determined at 20 minute intervals for the 60 minute reperfusion period. In the low flow demand ischemia model, the total myocardial ^3H2O and ^14CO2 production were determined at 10 minute intervals for the 30 minute reperfusion period. Glucose oxidation rates were determined by quantitative measurement of ^14CO2 production as described previously (Barbour R. L., et al. Biochemistr. 1923:6503-6062 (1984)).

[3] = system: isolated rat hearts subjected to global ischemia; assay: Isolated working rat heart, global no flow ischemia and reperfusion: cardiac function and efficiency; conditions: for Aortic Outflow / Cardiac Output / Coronary Flow / HR × PSP / Heart Rate / Peak Systolic Pressure: post-ischemic reperfusion, DCA 2 mM, digoxin 3 nM, metoprolol 1 μM
Description: (§2) Hearts were trimmed of excess tissue, and the pulmonary artery and the opening to the left atrium were then cannulated. After 15 min of Langendorff perfusion, hearts were switched to the working mode by clamping the aortic inflow line from the Langendorff reservoir and opening the left atrial inflow line. The perfusate was delivered from an oxygenator into the left atrium at a constant preload pressure of 11 mm Hg. […] The afterload was set at a hydrostatic pressure of 80 mm Hg. […] Palmitate was bound to the albumin as described previously ([…]., et al. J Biol. Chem. 267:3825-3831 (1992)). […] For the aerobic model hearts, all tested compounds were introduced into the heart 5 minutes into the working mode following Langendorff Perfusion. Spontaneously beating hearts were used in all perfusions. Heart rate and aortic pressure were measured with a Biopac Systems Inc. blood pressure transducer connected to the aortic outflow line. Cardiac output and aortic flow were measured with Transonic […] ultrasonic flow probes in the preload and afterload lines, respectively. Coronary flow was calculated as the difference between cardiac output and aortic flow. […] Cardiac work was calculated as the product of systolic pressure and cardiac output. Cardiac efficiency was defined as a ratio of cardiac work to MVO2. […] All tested compounds were introduced into the perfusate five minutes prior to reperfusion.

[4] = system: isolated rat hearts subjected to low flow demand ischemia; assay: Isolated working rat heart, low flow demand ischemia: cardiac function and efficiency; conditions: DCA 2 mM, diltiazem 0.8 μM, metoprolol 1 μM
Description: as §2, with “into initiation of aerobic perfusion.” for “prior to reperfusion.”

[5] = system: isolated rat hearts subjected to global ischemia; assay: Isolated working rat heart, global ischemia and reperfusion: glycolysis and glucose oxidation; conditions: FIG. 10, FIG. 16, DCA 2 mM, digoxin 3 nM, metoprolol 1 μM
Description: Hearts were trimmed of excess tissue, and the pulmonary artery and the opening to the left atrium were then cannulated. After 15 min of Langendorff perfusion, hearts were switched to the working mode by clamping the aortic inflow line from the Langendorff reservoir and opening the left atrial inflow line. The perfusate was delivered from an oxygenator into the left atrium at a constant preload pressure of 11 mm Hg. […] The afterload was set at a hydrostatic pressure of 80 mm Hg. […] Palmitate was bound to the albumin as described previously ([…]., et al. J Biol. Chem. 267:3825-3831 (1992)). […] For the aerobic model hearts, all tested compounds were introduced into the heart 5 minutes into the working mode following Langendorff Perfusion. […] All tested compounds were introduced into the perfusate five minutes prior to reperfusion. […] Am J Physiol. 270:[…]. Am J Cardiol. 80:3A-10A (1997)). […] In the global ischemia model, the total myocardial ^3H2O and ^14CO2 production were determined at 20 minute intervals for the 60 minute reperfusion period. […] L., et al. Biochemistr. 1923:6503-6062 (1984)).

[6] = low flow ischemia: aerobic period
[7] = low flow ischemia: ischemic period

Structure (SMILES)	Aortic Outflow [1]	Cardiac Efficiency (CW · O2^−1) [1]	Cardiac Output [1]	Cardiac Work (CO · PSP) [1]	Coronary Flow [1]	HR × PSP [1]	Heart Rate [1]	O2 Consumption [1]	Peak Systolic Pressure [1]	effect on functional parameters shown in Table 2 incl. O2 consumption and cardiac efficiency, in words [1]	effect on functional parameters shown in Table 1 (heart rate, peak systolic pressure, HR×PSP), in words [1]	glucose oxidation rates [2]	glycolytic rates (glycolysis) [2]	Aortic Outflow [3]	Cardiac Output [3]	Coronary Flow [3]	HR × PSP [3]	Heart Rate [3]	Peak Systolic Pressure [3]	also measured
O=C(O)C(Cl)Cl [DCA, dichloroacetate]	30 ± 3 mL/min	1.69 ± 0.19	49 ± 4 mL/min	61 ± 5	20 ± 1 mL/min	32 ± 1 beats · min^−1 · mmHg · 10^−2	239 ± 8 beats · min^−1	38 ± 5 μmolO2 · g dry wt^−1 · min^−1	125 ± 3 mmHg	no effect	no significant effect	1697±179 and 1526±79	8.917±3.060	14 ± 6 mL/min	35 ± 5 mL/min	21 ± 1 mL/min	18 ± 2 beats · min^−1 · mmHg · 10^−2	208 ± 11 beats · min^−1	87 ± 9 mmHg	increase in glucose oxidation ([2]; aerobic model): over 400%; increase in glycolysis ([2]; aerobic model): over 300%; Aortic Outflow [4, 6]: 27 ± 3 mL/min; Cardiac Output [4, 6]: 50 ± 2 mL/min; Coronary Flow [4, 6]: 22 ± 1 mL/min; HR × PSP [4, 6]: 30 ± 1 beats · min^−1 · mmHg · 10^−2; Heart Rate [4, 6]: 214 ± 7 beats · min^−1; Peak Systolic Pressure [4, 6]: 139 ± 3 mmHg; Aortic Outflow [4, 7]: 13 ± 5 mL/min; Cardiac Output [4, 7]: 26 ± 5 mL/min; Coronary Flow [4, 7]: 13 ± 1 mL/min; HR × PSP [4, 7]: 30 ± 1 beats · min^−1 · mmHg · 10^−2; Heart Rate [4, 7]: 214 ± 7 beats · min^−1; Peak Systolic Pressure [4, 7]: 139 ± 3 mmHg
C[C@H]1O[C@@H](O[C@H]2[C@@H](O)C[C@H](O[C@H]3[C@@H](O)C[C@H](O[C@H]4CC[C@@]5(C)[C@H](CC[C@@H]6[C@@H]5C[C@@H](O)[C@]5(C)[C@@H](C7=CC(=O)OC7)CC[C@]65O)C4)O[C@@H]3C)O[C@@H]2C)C[C@H](O)[C@@H]1O [Digoxin, digoxin]	31 ± 1 mL/min	–	52 ± 1 mL/min	67 ± 3	21 ± 1 mL/min	32 ± 1 beats · min^−1 · mmHg · 10^−2	258 ± 11 beats · min^−1	37 ± 3 μmolO2 · g dry wt^−1 · min^−1	129 ± 4 mmHg	–	no significant effect	–	5.651±1.298	14 ± 3 mL/min	34 ± 3 mL/min	20 ± 1 mL/min	19 ± 2 beats · min^−1 · mmHg · 10^−2	207 ± 12 beats · min^−1	93 ± 6 mmHg	Aortic Outflow ([1]; listed as digoxin): 31 ± 1 mL/min; Cardiac Work (CO · PSP) ([1]; listed as digoxin): 67±3; recovery of cardiac function of previously ischemic hearts compared to control, in words ([3]; reperfusion period, FIG. 11, FIG. 17): significantly improves the recovery; recovery of cardiac work of previously ischemic hearts compared to control, in words ([3]; reperfusion period, FIG. 12, FIG. 18): significantly improve the recovery; recovery of oxygen consumption of previously ischemic hearts, in words ([3]; reperfusion period, FIG. 13, FIG. 19): significantly improve the recovery; glycolytic rates as compared to control, in words [5]: neither DCA, digoxin, nor digoxin with DCA altered glycolytic rates
CC(CCc1ccc(O)cc1)NCCc1ccc(O)c(O)c1 (stereo not shown) [Dobutamine, dobutamine]	32 ± 3 mL/min	1.56 ± 0.43	52 ± 2 mL/min	64 ± 5	20 ± 4 mL/min	40 ± 2 beats · min^−1 · mmHg · 10^−2	333 ± 7 beats · min^−1	44 ± 9 μmolO2 · g dry wt^−1 · min^−1	124 ± 3 mmHg	no significant effect	–	1707±435	13.365±1.981	–	–	–	–	–	–	HR × PSP ([1]; listed as dobutamine): 40±2 beats · min^−1 · mmHg · 10^−2; Heart Rate ([1]; listed as dobutamine): 333±7 beats · min^−1; increase in glucose metabolism ([2]; aerobic model): ~400%
